Test results published in publication PMC9820316, “Novel Arylpiperazine Derivatives of Salicylamide with α1-Adrenolytic Properties Showed Antiarrhythmic and Hypotensive Properties in Rats” (International Journal of Molecular Sciences, 2022).
Marks after values point to notes of the source that are not given here.

Assays:
normotensive rats = assay: Influence on blood pressure in the normotensive rats; type: in vivo, rat; settings: for DBP—diastolic blood pressure / SBP—systolic blood pressure: mean ± SD
Method: The experiment was performed according to the method described earlier. Normotensive Wistar rats were anesthetized with thiopental (75 mg/kg ip). The right carotid artery was cannulated with a polyethylene tube filled with heparin solution, using a Datamax apparatus (Columbus Instruments, Columbus, OH, USA). After 15 min of the stabilization period, the studied compounds were administered iv, and their effect on systolic and diastolic blood pressure was evaluated (Figure 4A).

[1] = tested on: aconitine-induced arrhythmia model in rats; assay: Prophylactic antiarrhythmic activity in aconitine-induced arrhythmia; type: in vivo, rat; settings: 5 mg/kg iv 15 min before aconitine 20 μg/kg; number of animals with event
Method: (§1) The animals were anesthetized with thiopental (75 mg/kg ip). Depending on the model, either adrenaline, aconitine, or calcium chloride was used as an arrhythmogen. Adrenaline and aconitine were administered iv at a dose of 20 µg/kg, whereas calcium chloride was administered at a dose of 140 mg/kg to induce heart rhythm disturbances. The tested compounds were injected iv 15 min before the arrhythmogen. Aspel ASCARD apparatus (standard II lead, with the tape speed 50 mm/s and voltage calibration 1 mV = 1 cm) was used for ECG measurements. […] The ED50 was calculated using the method of Litchfield and Wilcoxon.

[2] = tested on: pressor response to methoxamine in rats; assay: Influence on blood vasopressor response to methoxamine in rats; type: in vivo, rat; settings: 1 mg/kg iv, methoxamine 150 μg/kg before and 5 min after compound
Method: The experiment was performed to establish the effect of the studied derivatives on the pressor response to methoxamine (150 µg/kg, iv), according to the methods described previously. Normotensive Wistar rats were anesthetized with thiopental (75 mg/kg ip). The right carotid artery was cannulated with a polyethylene tube filled with heparin solution using a Datamax apparatus (Columbus Instruments, Columbus, OH, USA). After a 15-min stabilization period, the pressor response to methoxamine before (control) and 5 min after the administration of the tested compounds was measured (Figure 4B). The tested compounds were administered at the lowest hypotensive dose.

normal ECG in rats = assay: Effect on a normal electrocardiogram in rats; type: in vivo, rat; settings: 5 mg/kg iv; for HR—heart rate / PQ interval / QRS complex / QTc (Bazzett's formula): mean ± SD; for PQ interval / QRS complex / QTc (Bazzett's formula): in ms (unit assumed)
Method: The procedure was performed to exclude the negative effects of the tested compounds on the normal ECG, according to the method described earlier. […] Firstly, animals were anesthetized with thiopental (75 mg/kg ip). […] The influence on PQ, QTc interval, QRS complex, and heart rate was evaluated. The Bazzett’s formula: QTc = QT/√RR was used to calculate QTc. All the studied compounds were administered at a dose of 5 mg/kg.

[3] = tested on: adrenaline-induced arrhythmia model in rats; assay: Therapeutic antiarrhythmic activity in adrenaline-induced arrhythmia; settings: 1 mg/kg iv immediately after adrenaline 20 µg/kg; number of animals with event
Method: The experiments were carried out according to the method described by Szekeres and Papp [71]. The heart rhythm disturbances, such as extrasystoles, conduction blocks, and bradycardia, were induced by iv injection of adrenaline (20 µg/kg) to anesthetized rats (thiopental, 75 mg/kg, ip). […] The Aspel ASCARD apparatus (standard II lead, with a tape of speed 50 mm/s and voltage calibration of 1 mV = 1 cm) was used for the ECG measurements. The ECG was recorded during the first 2 min and in the 5th, 10th, and 15th min after the adrenaline injection (Figure 3B). The lack or decreased amount of extrasystoles, atrioventricular blocks, and bradycardia in the ECG recordings compared to the control group was the criterion of antiarrhythmic activity [72].
Automated ECG waveform analysis was evaluated as described earlier [55], using Eleven Maze software version 0.1 from Eleven Products Sp. z o.o. […] The software, under expert supervision, recognized and classified the heart rhythm irregularities. It also calculated PQ, QRS, QTc, and rate parameters.

α1-adrenergic receptors = assay: α1-adrenoceptor radioligand binding assay ([3H]-prazosin, rat cortex); settings: rat cortex tissue, mean ± SEM
Method: (§2) The α1- and α2-adrenoceptor radioligand binding assays were performed on the rat cerebral cortex using previously described methods. […] The brains were homogenized using the ULTRA-TURRAX homogenizer in 10 mL of an ice-cold 50 mM Tris-HCl buffer (pH 7.6). The homogenates were centrifuged at 20,000× g for 20 min (0–4 °C). Subsequently, the cell pellet was resuspended in the Tris–HCl buffer and centrifuged again. Radioligand binding assays were carried out in plates (MultiScreen/Millipore). The final incubation mixture, with a volume of 300 μL, consisted of 240 μL of the tissue suspension, 30 μL of the radioligand solution, and 30 μL of the buffer containing 7–8 concentrations of the studied compounds. In order to measure the unspecific binding, 10 μM phentolamine (for [^3H]-prazosin) or 10 μM clonidine (for [^3H]-clonidine) were utilized. The incubation was completed by rapid filtration through Whatman GF/C filters using a vacuum manifold (Millipore). The filters were then washed twice with the assay buffer and placed in scintillation vials with a liquid scintillation cocktail. Radioactivity was measured in a WALLAC 1409 DSA liquid scintillation counter (Perkin Elmer, USA). All the assays were performed in duplicates, and the inhibitory constants (Ki) were calculated.

[4] = tested on: adrenaline-induced arrhythmia model in rats; assay: Prophylactic antiarrhythmic activity in adrenaline-induced arrhythmia; type: in vivo, rat; settings: for Blocks / Bradycardia / Extrasystoles / Mortality: number of animals with event
Method: as §1

α2-adrenergic receptors = assay: α2-adrenoceptor radioligand binding assay ([3H]-clonidine, rat cortex); settings: rat cortex tissue, mean ± SEM, n.a. = did not bind at 10^−5 M
Method: as §2

[5] = 0.5 mg/kg iv, 0 min (before administration)
[6] = 1.0 mg/kg iv, 0 min (before administration)
[7] = 0 min (prior to administration)
[8] = 0.05 mg/kg iv 15 min before adrenaline 20 μg/kg
[9] = 0.1 mg/kg iv 15 min before adrenaline 20 μg/kg
[10] = 0.25 mg/kg iv 15 min before adrenaline 20 μg/kg

## Cl.NC(=O)c1ccccc1OCCCCN1CCN(c2cccc(Cl)c2)CC1 [JJGW01, 2-{4-[4-(3-chlorophenyl)piperazin-1-ylo]butoxy}benzamide hydrochloride]
Normotensive rats; [5]
  DBP—diastolic blood pressure: 95.3 ± 12.6 mmHg
  SBP—systolic blood pressure: 130.7 ± 14.9 mmHg
Normotensive rats; 0.5 mg/kg iv, 5 min
  DBP—diastolic blood pressure: 88.5 ± 14.3 mmHg
  SBP—systolic blood pressure: 119.0 ± 13.4 mmHg
Normotensive rats; 0.5 mg/kg iv, 10 min
  DBP—diastolic blood pressure: 85.0 ± 13.6 mmHg
  SBP—systolic blood pressure: 115.7 ± 13.0 mmHg
Normotensive rats; 0.5 mg/kg iv, 20 min
  DBP—diastolic blood pressure: 84.8 ± 8.5 mmHg
  SBP—systolic blood pressure: 114.7 ± 8.8 mmHg
Normotensive rats; 0.5 mg/kg iv, 30 min
  DBP—diastolic blood pressure: 84.3 ± 6.9 mmHg
  SBP—systolic blood pressure: 114.5 ± 10.2 mmHg
Normotensive rats; 0.5 mg/kg iv, 40 min
  DBP—diastolic blood pressure: 86.0 ± 10.3 mmHg
  SBP—systolic blood pressure: 115.2 ± 12.6 mmHg
Normotensive rats; 0.5 mg/kg iv, 50 min
  DBP—diastolic blood pressure: 88.3 ± 15.3 mmHg
  SBP—systolic blood pressure: 116.8 ± 17.3 mmHg
Normotensive rats; 0.5 mg/kg iv, 60 min
  DBP—diastolic blood pressure: 86.8 ± 15.5 mmHg
  SBP—systolic blood pressure: 113.8 ± 16.1 mmHg
Normotensive rats; [6]
  DBP—diastolic blood pressure: 87.7 ± 11.2 mmHg
  SBP—systolic blood pressure: 112.5 ± 11.6 mmHg
Normotensive rats; 1 mg/kg iv, 40th min after administration
  decrease of the diastolic blood pressure: 16%
Normotensive rats; 1 mg/kg iv, 60th min after administration
  decrease of the diastolic blood pressure: 17%
Normotensive rats; 1.0 mg/kg iv, 5 min
  DBP—diastolic blood pressure: 80.2 ± 10.8 mmHg
  SBP—systolic blood pressure: 102.5 ± 9.5 ^d mmHg
Normotensive rats; 1.0 mg/kg iv, 10 min
  DBP—diastolic blood pressure: 79.0 ± 11.9 mmHg
  SBP—systolic blood pressure: 100.3 ± 10.4 ^d mmHg
Normotensive rats; 1.0 mg/kg iv, 20 min
  DBP—diastolic blood pressure: 77.5 ± 12.1 mmHg
  SBP—systolic blood pressure: 99.7 ± 11.3 ^c mmHg
Normotensive rats; 1.0 mg/kg iv, 30 min
  DBP—diastolic blood pressure: 75.7 ± 10.6 mmHg
  SBP—systolic blood pressure: 98.2 ± 10.4 ^c mmHg
Normotensive rats; 1.0 mg/kg iv, 40 min
  DBP—diastolic blood pressure: 73.8 ± 14.0 ^a mmHg
  SBP—systolic blood pressure: 95.7 ± 13.3 ^c mmHg
Normotensive rats; 1.0 mg/kg iv, 50 min
  DBP—diastolic blood pressure: 72.7 ± 11.6 mmHg
  SBP—systolic blood pressure: 95.5 ± 11.2 ^d mmHg
Normotensive rats; 1.0 mg/kg iv, 60 min
  DBP—diastolic blood pressure: 73.2 ± 11.3 ^a mmHg
  SBP—systolic blood pressure: 96.5 ± 10.6 ^c mmHg
Normotensive rats; 1 mg/kg iv, between the 5th and 60th min after the injection
  decrease of the systolic blood pressure: 9–15%
[1]
  Blocks: 6/6
  Bradycardia: 6/6
  Extrasystoles: 5/6
  Fibrillations: 6/6
  Mortality: 6/6
[2]
  attenuation of the methoxamine pressor response: 81%
Normal ECG in rats
  effect on the heart rate during the ECG recording: did not affect the heart rate
Normal ECG in rats; [7]
  HR—heart rate: 311.8 ± 11.6
  PQ interval: 42.3 ± 3.4
  QRS complex: 49.3 ± 7.8
  QTc (Bazzett's formula): 196.0 ± 14.2
Normal ECG in rats; 5 min
  HR—heart rate: 318.0 ± 28.5
  PQ interval: 42.3 ± 2.0
  QRS complex: 46.7 ± 5.6
  QTc (Bazzett's formula): 193.7 ± 14.9
Normal ECG in rats; 10 min
  HR—heart rate: 324.6 ± 23.1
  PQ interval: 41.3 ± 2.4
  QRS complex: 48.0 ± 4.2
  QTc (Bazzett's formula): 186.6 ± 9.0
Normal ECG in rats; 15 min
  HR—heart rate: 324.0 ± 23.1
  PQ interval: 41.0 ± 3.3
  QRS complex: 50.3 ± 4.6
  QTc (Bazzett's formula): 190.6 ± 14.5
[3]
  Blocks: 3/5
  Bradycardia: 2/5
  Mortality: 0/5
α1-adrenergic receptors
  Adrenergic Receptors—pKi α1: 8.40 ± 0.01
[4]; [8]
  Blocks: 6/6
  Bradycardia: 6/6
  Extrasystoles: 6/6
  Mortality: 4/6
[4]; [9]
  Blocks: 5/6
  Bradycardia: 3/6
  Extrasystoles: 5/6
  Mortality: 0/6
[4]; [10]
  Blocks: 4/6
  Bradycardia: 2/6
  Extrasystoles: 4/6
  Mortality: 1/6
[4]; prophylactic, iv 15 min before adrenaline 20 μg/kg, confidence limits in brackets (Litchfield and Wilcoxon)
  ED50: 0.10 (0.03–0.36) mg/kg
α2-adrenergic receptors
  Adrenergic Receptors—pKi α2: 6.13 ± 0.02
